Here are results for two compounds from patent US20130041005A1, “PHARMACEUTICAL COMPOSITIONS COMPRISING NEUROPILIN INHIBITORS, AND THEIR USE FOR THE PREVENTION AND/OR TREATMENT OF ANGIOGENIC DISORDERS AND CANCERS” (TRAGEX PHARMA, priority 2011, published 2013).

Assay type in all cases: cell-based
One assay has as its system SH-SY5Y. The assay can be described thus: WST-1 proliferation assay, SH-SY5Y. The conditions noted are these: Homo sapiens; Brain SH-SY5Y, 72 h; read-out: Anti-proliferative activity IC50 (μM) ± SD. An excerpt:
Several cancer cell lines were used: breast cancer cells (MDA-MB-231 (ATTCC® Number HTB-26™), MDA-MB-436 (ATTCC® Number HTB-130™), MDA-MB-438, BT-474 (ATTCC® Number HTB-20™)); cervical cancer cells (HeLa (ATTCC® Number CCL-2™)); colon cancer cells (HCT-116 (ATTCC® Number CCL-247™) and HT-29 (ATTCC® Number HTB-38™)); osteosarcoma cells (U2OS (ATTCC® Number HTB-96™)); pancreas cancer cells (MIA PaCa-2 (ATTCC® Number CRL-1420™) and Panc-10.5 (ATTCC® Number CRL-2547™)); prostate cancer cells (PC-3 (ATTCC® Number CRL-1435™) and LNCaP (ATTCC® Number CRL-1740™)); brain cancer cells (U87 glioblastoma (ATTCC® Number HTB-14™) and SH-SYSY neuroblastoma (ATTCC® Number CRL-2266™)). […]
After observation of cells under the microscope, old media were removed and the adherent cells washed gently twice with PBS (Phosphate Buffer Saline, —Ca^2+, —Mg^2+, Lonza cat no: 17-512F/12). […] 50 μl of this solution were transferred in 20 μl of isotonic solution and the cells were counted by count cellular (Beckman Coulter). […]
(§1) The cell proliferation WST-1 assay is a colorimetric assay for the quantification of cell proliferation and viability, based on the enzymatic cleavage of the tetrazolium salt WST-1 added to the culture medium, to a water soluble colored formazan dye, detected by absorbance at 450 nm, by mitochondrial succinate-tetrazolium reductase in viable cells. […]
In general terms: Tetrazolium assays rely on reduction of a dye to a coloured formazan, in cell work by metabolically active cells.

Another assay relates to U266. The assay can be described thus: WST-1 proliferation assay, U266. The conditions noted are these: Homo sapiens, U-266; Myeloma U266; read-out: Anti-proliferative activity IC50 (μM) ± SD. Here is the method:
All the cancer cell lines were maintained in cultured in DMEM GlutaMAX™ (GIBCO Invitrogen, France, cat no 31966047) enhanced with 10% foetal bovine serum (GIBCO Invitrogen, France, cat no 10270-106) and 1% penicillin G/streptomycin (GIBCO Invitrogen, France, cat no 15140-122). Only Panc-10.5 cells were cultivated in RPMI 1640 medium (Gibco) supplemented with 2 mM L-glutamine, 1.5 g/L sodium bicarbonate, 4.5 g/L glucose, 10 mM HEPES, 1 mM sodium pyruvate, 10 Units/ml human insulin, […] (SVF): 15% (75 ml in 500 ml of medium).
Cells were grown as subconfluent monolayer and cultured in 75 cm^2 flasks at 37° C., 5% CO2 in a humidified atmosphere, and medium was changed every two days. […]
as §1
After an incubation period of 72 h, at day 4, were prepared the 19 ml medium with reagent WST-1 1 ml ([…]). […] The cells were incubated at 37° C. in a humidified atmosphere of 5% CO2 for 1 h 30 and the absorbance at 450-655 nm was measured by Microplate Manager 5.2 (Bio-Rad).

In assay [1] the test system is endothelial (HUVEC) cells. The assay can be described thus: Apoptosis assay (Annexin V-FITC/PI), HUVEC. To be noted: IC50 concentration, 72 h (FIG. 2B). Here is the method: The level of apoptosis in endothelial (HUVEC) and breast cancer cells (MDA-MB-231) was detected by Annexin V-FITC Apoptosis Detection Kit (ref 556547, BD Biosciences, France) according to the manufacturer's instructions. Briefly, HUVEC and MDA-MB-231 cells were treated separately with DMSO (control) and the compounds of the invention at the concentration corresponding to the IC50, obtained by the proliferation assay, for 72 h. After treatment, all cell including both detached and attached cells were collected, centrifugated at 14000 rpm for 5 min and the apoptotic cells were detected by staining with Annexin V-FITC and (propidium iodide) PI. The cells were resuspended in 100 μl Annexin V binding buffer (10 mM Hepes/NaOH, pH 7.4, 140 mM NaCl, […]) containing 5 μl of Annexin V-FITC and 5 μl of PI (propidium iodide). Samples were gently mixed and incubated for 2 h on ice and in the dark. Viable and apoptotic cell were detected by flow citometry (FACS Calibur Becton Dickinson, France). Apoptotic cells include both the early apoptotic portion (Annexin V-positive) and the late apoptotic portion (Annexin V- and PI-positive). Staurosporine is used as a positive control of apoptosis induction.

The next assay deals with U87 glioblastoma. The assay can be described thus: WST-1 proliferation assay, U87. To be noted: Homo sapiens.
The subject of the next assay is HCT-116. The assay can be described thus: WST-1 proliferation assay, HCT-116. The conditions noted are these: Homo sapiens; HCT-116, 0.05 μM.

Structures are written as SMILES. Entries after “also recorded” stand apart in the source; their conditions may differ.

`Cc1ccc(-c2nc3ccccc3[nH]2)cc1NC(=S)NC(=O)c1ccc2c(c1)OCCO2` [Compound 1, N-[5-(1H-benzimidazol-2-yl)-2-methylphenyl]-N′-(2,3-dihydro-1,4-benzodioxin-6-ylcarbonyl)thiourea]: the values for the IC50 in the assay on SH-SY5Y and with U266 were 0.4 ± 0.03 µM and 2 µM, respectively. Moreover, in assay [1], the “induction of apoptosis in endothelial cells” value is reported as “induced the apoptosis; also recorded: induction of apoptosis”. Moreover, the inhibition at 0.05 µM with U87 glioblastoma and in the assay on HCT-116 was 0% each time.

With `O=C(NC(=S)Nc1cccc(-c2nc3ccccc3[nH]2)c1)c1ccc2c(c1)OCCO2` [Compound 2, N-[3-(1H-benzimidazol-2-yl)phenyl]-N′-(2,3-dihydro-1,4-benzodioxin-6-ylcarbonyl)thiourea], the IC50 turned out to be 0.05 ± 0.04 µM in the assay with SH-SY5Y and 1.5 ± 0.04 µM with U266. For the same compound, the “induction of apoptosis in endothelial cells” value in assay [1] is on record as “induced the apoptosis; also recorded: induction of apoptosis”. Further, the inhibition at 0.05 µM amounted to 19% in the assay on U87 glioblastoma and 25% in the assay on HCT-116.

For orientation: IC50 means the concentration that gives 50% inhibition. By inhibition is commonly meant the drop in the measured response relative to a control, in per cent. A lower inhibition goes with little suppression.
